Consider 30 compounds from patent publication US11021468B2, “TGF-ß inhibitors” (Rigel Pharmaceuticals, Inc., priority 2015, dated 2021).

One assay relates to GDF8. Description: AlphaScreen SureFire SMAD3 (p-Ser423/425) assay, GDF8-stimulated (GDF pSMAD (MPC11)). Format: cell-based. As to conditions: p-SMAD-3 (Ser423/425). The source says: (§1) Example 2: AlphaScreen® SureFire® SMAD3 (p-Ser423/425) Assay
(§2) The p-SMAD-3 (Ser423/425) SureFire® assay has been designed to measure the phosphorylation of endogenous cellular p-SMAD-3 (Ser423/425) in cell lysates and is a system for the screening of both modulators of receptor activation (e.g. agonists and antagonists) as well as agents acting intracellularly, such as small molecule inhibitors of upstream events. The assay will measure p-SMAD-3 (Ser423/425) activation by either cloned or endogenous receptors, and can be applied to primary cells.
(§3) P-SMAD-3 (Ser423/425) SureFire® Assay Protocols
(§4) 96-well Assay Protocol for 293FT and RMS13 adherent cells can be carried out manually or in high throughput with liquid handling robots.
(§5) The cells (80 μL of cells for 96 well plates) were plated in collagen coated tissue culture plates in RPMI or FreeStyle medium (Invitrogen) and incubated overnight. For manual analysis, 6 plates for GDF8, 6 plates for TGFβ, and optionally 6 plates for Alk5ca(ALK5 constitutively active) were used.
(§6) The compound dilution plates were prepared as follows: 12 μL of DMSO was transferred into first column of 96-well plate, and 16 μL of DMSO was transferred into columns 2-12 of the 96-well plate. 12 μL of compound solution was transferred into first column of the DMSO-containing 96-well plate. Three-fold dilution was performed up to column 10 of the DMSO-containing 96-well plate.
(§7) The plate containing cells were treated with compounds for about 10 minutes, and then ligand was added. GDF8 or TGFb was added to plates to stimulate. 293FL cells were stimulated for 90 minutes at 37° C.; and RMS13 cells were stimulated for 60 minutes at 37° C. The medium was then removed from the cells, and 1× Lysis Buffer (about 25 μL) was added and the plate was gently agitated on plate shaker for 5-10 minutes.
(§8) The lysate (5 μL) was then placed into 384-well shallow plates avoiding the generation of bubbles. To this, the Reaction Buffer+Activation Buffer+AlphaScreen® Acceptor beads mixture (5 μL) was added. The plate was sealed with adhesive cover and shielded from light (e.g., with metal foil), and agitated gently on plate shaker for 2 hours at room temperature.
(§9) Dilution buffer+AlphaScreen® Donor beads (2 μL) was then added, and the plate was intubated on the plate shaker for an additional 1½ hours. After completion, the plate was read on Synergy-4 or Enspire plate reader, using AlphaScreen® pSMAD3® settings.
(§10) Representative results for inhibition of GDF8 (data=GDF pSMAD (MPC11) (μM)) and TGF-β (data=TGF-β pSMAD (MPC-11) (μM)) signaling are shown in Table 1: […]
A general note: Alpha assays give light when donor and acceptor beads are brought close together.

Another assay deals with TGF-β. In words: AlphaScreen SureFire SMAD3 (p-Ser423/425) assay, TGF-β-stimulated (TGF-β pSMAD (MPC-11)). Format: cell-based. The conditions noted are these: p-SMAD-3 (Ser423/425).
From the text: as §1, §2, §3, §4, §5, §6, §7, §8, §9, §10

The mark [1] stands for this setting: Mus musculus, MPC-11, inhibition of GDF8 signaling.
The mark [2] stands for this setting: Mus musculus, MPC-11, inhibition of TGF-β signaling.

As usually defined, the IC50 is the midpoint of a concentration-inhibition curve.

As to `Cc1ccccc1-c1ncc(C)c(Nc2ccc3[nH]ncc3c2)n1` [Compound 39, N-(2-(2-Methylphenyl)-5-methylpyrimidin-4-yl)-1H-indazol-5-amine], the IC50 was 204 nM in the assay on GDF8 (setting [1]) and 436 nM in the assay with TGF-β (setting [2]).

With `Fc1ccc(-c2nccc(Nc3ccc4[nH]ncc4c3)n2)cc1` [Compound 33, N-(2-(4-Fluorophenyl)pyrimidin-4-yl)-1H-indazol-5-amine], the IC50 in the assay with GDF8 (setting [1]) stood at 25.1 nM; in the assay with TGF-β (setting [2]), 203 nM.

For the compound `Cc1cc(-c2ncc(C)c(Nc3cnc4[nH]ncc4c3)n2)ccc1F` [Compound 49, N-(2-(4-Fluoro-3-methylphenyl)-5-methylpyrimidin-4-yl)-1H-pyrazolo[3,4-b]pyridin-5-amine], the results for the IC50 in the assay on GDF8 (setting [1]) and in the assay on TGF-β (setting [2]) were 545 nM and 349 nM, respectively.

Take `Cc1cnc(-c2cccc(F)c2)nc1Nc1cc2cn[nH]c2cc1F` [Compound 57, 6-Fluoro-N-(2-(3-fluorophenyl)-5-methylpyrimidin-4-yl)-1H-indazol-5-amine]: the figures for the IC50 in the assay with GDF8 (setting [1]) and in the assay on TGF-β (setting [2]) were 852 nM and 1820 nM, respectively.

`Cc1cnc(-c2cccc(F)c2)nc1Nc1cnc2[nH]ncc2c1` [Compound 13, N-(2-(3-Fluorophenyl)-5-methylpyrimidin-4-yl)-1H-pyrazolo[3,4-b]pyridin-5-amine]: the IC50 turned out to be 883 nM with GDF8 (setting [1]) and 2720 nM in the assay on TGF-β (setting [2]).

On to `Fc1ccc(-c2nc(Nc3ccc4[nH]ncc4c3)c3cc[nH]c3n2)cc1F` [Compound 6, 2-(3,4-Difluorophenyl)-N-(1H-indazol-5-yl)-7H-pyrrolo[2,3-d]pyrimidin-4-amine], for which the IC50 was found to be 264 nM in the assay with GDF8 (setting [1]) and 1680 nM in the assay on TGF-β (setting [2]).

On to `Cc1cccc(-c2ncc(C)c(Nc3cc4cn[nH]c4cc3C)n2)c1` [Compound 52, N-(2-(3-Methylphenyl)-5-methylpyrimidin-4-yl)-6-methyl-1H-indazol-5-amine], for which the IC50 turned out to be 234 nM in the assay with GDF8 (setting [1]) and 322 nM with TGF-β (setting [2]).

As for `Cc1cc(-c2ncc(C)c(Nc3cc4cn[nH]c4cc3C)n2)ccc1F` [Compound 56, N-(2-(4-Fluoro-3-methylphenyl)-5-methylpyrimidin-4-yl)-6-methyl-1H-indazol-5-amine], the values for the IC50 in the assay on GDF8 (inhibition of GDF8 signaling) and with TGF-β (inhibition of TGF-β signaling) were 184 nM and 281 nM, respectively.

On to `Cc1cc(F)ccc1-c1ncc(F)c(Nc2cnc3[nH]ncc3c2)n1` [Compound 12, N-(5-Fluoro-2-(4-fluoro-2-methylphenyl)pyrimidin-4-yl)-1H-pyrazolo[3,4-b]pyridin-5-amine], for which the half-inhibitory concentration (IC50) with GDF8 (setting [1]) came to 481 nM; in the assay on TGF-β (setting [2]), 1590 nM.

As for `Cc1cccc(-c2ncc(C)c(Nc3cnc4[nH]ncc4c3)n2)c1` [Compound 16, N-(2-(3-Methylphenyl)-5-methylpyrimidin-4-yl)-1H-pyrazolo[3,4-b]pyridin-5-amine], the results for the half-maximal inhibitory concentration (IC50) with GDF8 (setting [1]) and in the assay with TGF-β (setting [2]) were 289 nM and 410 nM, respectively.

Take `Cc1ccc(C)c(-c2ncc(C)c(Nc3cc4cn[nH]c4cc3F)n2)c1` [Compound 59, 6-Fluoro-N-(2-(2,5-dimethylphenyl)-5-methylpyrimidin-4-yl)-1H-indazol-5-amine]: the IC50 turned out to be 332 nM with GDF8 (setting [1]) and 558 nM with TGF-β (setting [2]).

As for `Cc1ccc(C)c(-c2ncc(C)c(Nc3cc4cn[nH]c4cc3C)n2)c1` [Compound 55, N-(2-(2,5-Dimethylphenyl)-5-methylpyrimidin-4-yl)-6-methyl-1H-indazol-5-amine], the values for the IC50 with GDF8 (setting [1]) and in the assay on TGF-β (setting [2]) were 260 nM and 629 nM, respectively.

For the compound `COc1cccc(-c2nccc(Nc3ccc4[nH]ncc4c3)n2)c1` [Compound 19, N-(2-(3-Methoxyphenyl)pyrimidin-4-yl)-1H-indazol-5-amine], the IC50 turned out to be 766 nM in the assay with GDF8 (setting [1]) and 4050 nM in the assay with TGF-β (setting [2]).

Consider `Cc1cccc(-c2nc(Nc3ccc4[nH]ncc4c3)c3cc[nH]c3n2)c1` [Compound 9, N-(1H-Indazol-5-yl)-2-(3-methylphenyl)-7H-pyrrolo[2,3-d]pyrimidin-4-amine], for which the IC50 was 336 nM in the assay on GDF8 (setting [1]) and 1460 nM with TGF-β (setting [2]).

`Cc1ccc(C)c(-c2nccc(Nc3ccc4c(cnn4C(=O)CN(C)C)c3)n2)c1` [Compound 1, 2-(Dimethylamino)-1-(5-((2-(2,5-dimethylphenyl)pyrimidin-4-yl)amino)-1H-indazol-1-yl)ethan-1-one]: the half-maximal inhibitory concentration (IC50) in the assay with GDF8 (setting [1]) was determined as 47.2 nM; in the assay with TGF-β (setting [2]) it was 560 nM.

On to `Cc1ccc(C)c(-c2ncc(C)c(Nc3ccc4[nH]ncc4c3)n2)c1` [Compound 41, N-(2-(2,5-Dimethylphenyl)-5-methylpyrimidin-4-yl)-1H-indazol-5-amine], for which the IC50 in the assay with GDF8 (setting [1]) is 105 nM; with TGF-β (setting [2]), 168 nM.

For the compound `Fc1ccc(-c2nc(Nc3cnc4[nH]ncc4c3)c3cc[nH]c3n2)cc1` [Compound 50, N-(2-(4-Fluorophenyl)-7H-pyrrolo[2,3-d]pyrimidin-4-yl)-1H-pyrazolo[3,4-b]pyridin-5-amine], the IC50 in the assay with GDF8 (setting [1]) came out at 1050 nM; with TGF-β (setting [2]) it was 3490 nM.

On to `Fc1ccccc1-c1nccc(Nc2ccc3[nH]ncc3c2)n1` [Compound 17, N-(2-(2-Fluorophenyl)pyrimidin-4-yl)-1H-indazol-5-amine], for which the IC50 with GDF8 (setting [1]) was 220 nM; with TGF-β (setting [2]) it was 2170 nM.

With `c1ccc(-c2nccc(Nc3ccc4[nH]ncc4c3)n2)cc1` [Compound 20, N-(2-Phenylpyrimidin-4-yl)-1H-indazol-5-amine], the IC50 with GDF8 (setting [1]) is 358 nM; in the assay on TGF-β (setting [2]), 1740 nM.

Turning to `Cc1cc(-c2nc(Nc3ccc4[nH]ncc4c3)c3cc[nH]c3n2)ccc1F` [Compound 8, 2-(4-Fluoro-3-methylphenyl)-N-(1H-indazol-5-yl)-7H-pyrrolo[2,3-d]pyrimidin-4-amine], the IC50 is 84.2 nM in the assay with GDF8 (setting [1]) and 747 nM with TGF-β (setting [2]).

For `Fc1ccccc1-c1ncc(F)c(Nc2ccc3[nH]ncc3c2)n1` [Compound 24, N-(5-Fluoro-2-(2-fluorophenyl)pyrimidin-4-yl)-1H-indazol-5-amine], the figures for the IC50 in the assay on GDF8 (setting [1]) and with TGF-β (setting [2]) were 846 nM and 3990 nM, respectively.

With `Cc1cc(-c2nccc(Nc3ccc4[nH]ncc4c3)n2)ccc1F` [Compound 43, N-(2-(4-Fluoro-3-methylphenyl)pyrimidin-4-yl)-1H-indazol-5-amine], the IC50 with GDF8 (setting [1]) came out at 41 nM; in the assay on TGF-β (setting [2]), 185 nM.

Take `Fc1ccc(-c2nccc(Nc3cnc4[nH]ncc4c3)n2)cc1` [Compound 4, N-(2-(4-Fluorophenyl)pyrimidin-4-yl)-1H-pyrazolo[3,4-b]pyridin-5-amine]: the IC50 amounted to 171 nM with GDF8 (setting [1]) and 840 nM in the assay on TGF-β (setting [2]).

As for `COc1ccc(-c2nccc(Nc3ccc4[nH]ncc4c3)n2)c(C)c1` [Compound 46, N-(2-(4-Methoxy-2-methylphenyl)pyrimidin-4-yl)-1H-indazol-5-amine], the figures for the IC50 in the assay with GDF8 (setting [1]) and in the assay on TGF-β (setting [2]) were 11 nM and 65.9 nM, respectively.

As to `Cc1ccc(C)c(-c2nccc(Nc3ccc4[nH]ncc4c3)n2)c1` [Compound 30, N-(2-(2,5-Dimethylphenyl)pyrimidin-4-yl)-1H-indazol-5-amine], the IC50 came out at 193 nM with GDF8 (setting [1]) and 842 nM with TGF-β (setting [2]).

For `COc1cc2[nH]ncc2cc1Nc1nc(-c2ccccc2F)ncc1C` [Compound 62, N-(2-(2-Fluorophenyl)-5-methylpyrimidin-4-yl)-6-methoxy-1H-indazol-5-amine], the IC50 with GDF8 (setting [1]) amounted to 335 nM; in the assay on TGF-β (setting [2]), 381 nM.

For the compound `Fc1ccc(-c2nccc(Nc3ccc4[nH]ncc4c3)n2)cc1F` [Compound 25, N-(2-(3,4-Difluorophenyl)pyrimidin-4-yl)-1H-indazol-5-amine], the IC50 with GDF8 (inhibition of GDF8 signaling) came out at 91.1 nM; with TGF-β (inhibition of TGF-β signaling), 326 nM.

On to `Fc1ccc(-c2nccc(Nc3ccc4[nH]ncc4c3)n2)cc1F` [Compound 22, N-(2-(3,4-Difluorophenyl)pyrimidin-4-yl)-1H-indazol-5-amine], for which the values for the IC50 in the assay with GDF8 (inhibition of GDF8 signaling) and with TGF-β (inhibition of TGF-β signaling) were 32.1 nM and 112 nM, respectively.

For `Cc1ccccc1-c1ncc(F)c(Nc2ccc3[nH]ncc3c2)n1` [Compound 34, N-(5-Fluoro-2-(methylphenyl)pyrimidin-4-yl)-1H-indazol-5-amine], the results for the IC50 with GDF8 (setting [1]) and in the assay on TGF-β (setting [2]) were 427 nM and 2340 nM, respectively.

As for `Cc1cccc(-c2nccc(Nc3ccc4[nH]ncc4c3)n2)c1` [Compound 32, N-(2-(3-Methylphenyl)pyrimidin-4-yl)-1H-indazol-5-amine], the IC50 was determined as 116 nM in the assay with GDF8 (setting [1]) and 553 nM in the assay on TGF-β (setting [2]).
